Key:
Format in all cases: cell-based, human
iPS cells (836B1) = assay: Immunostaining for CoupTF1 and Ctip2 on day 46, suspension culture with various WNT inhibitors (Example 4); details: 50 nM C59, 100 nM LGK-974, 1 μM ICG-001, day 46; C59 and LGK-974 compared with each other
Experimental: On the day before induction of differentiation, in order to separate the iPS cells (836B1), which had been cultured in a culture medium to which 10 μM Y-27632 had been added, from the SNL feeder cells, the SNL cells were removed with CTK and the remaining cells were then dissociated using Accumax. The cells were transferred on a 96-well plate (Lipidure-coat 96-well plate) in an amount of 9×10^3 cells per well. Thereafter, the cells were subjected to a suspension culture in DMEM/F12 comprising 50 μM Y-27632, 10 μM SB43152, 10 ng/ml bFGF, various types of Wnt inhibitors (50 nM C59, 100 nM LGK-974, or 1 μM ICG-001 (Cellagen Technology)), 100 nM LDN193189, 10% KSR, 0.1 mM MEM non-essential amino acid, 0.1 mM 2-mercaptoethanol, and 2 mM L-Gln (initiation of differentiation induction, day 0). […] Three days later, the medium was exchanged with DMEM/F12 comprising various types of WNT inhibitors (C59, LGK-974, or ICG-001), 100 nM LDN193189, 10% KSR, 0.1 mM MEM non-essential amino acid, 0.1 mM 2-mercaptoethanol, and 2 mM L-Gln (day 6). Thereafter, the medium was exchanged with a fresh one of the same type every 3 days, and the culture was carried out for 18 days after the initiation of differentiation induction (day 18).
A half of the medium on day 18 was removed by aspiration, and thereafter, Neurobasal, to which B27, 2 mM L-Gln, and 10 units/ml penicillin and streptomycin had been added, was added in the same amount as the removed medium to the remaining medium. Likewise, a half amount of the medium was exchanged on day 21. On day 24, the cells were transferred on a petri dish, and thereafter, a half of the medium was exchanged every 3 or 4 days. On day 46, the obtained cells were immunostained using antibodies against CoupTF1 and Ctip2. […] From the aforementioned results, it was confirmed that nerve cells existing in the desired corticocerebral motor area can be induced even by utilizing the WNT inhibitor LGK-974 having a similar action to C59.

[1] = test system: ES cells or the iPS cells; assay: qPCR of marker gene expression in cells differentiated with added inhibitors
From the text: (§1) Human ES cells (KhES-1) were obtained from Institute for Frontier Medical Sciences, Kyoto University (Suemori H, et al. Biochem Biophys Res Commun. 345: 926-32, 2006). The human iPS cells 404C2 are cells obtained by introducing Oct3/4, Sox2, Klf4, L-MYC, LIN28 and p53shRNA into human fibroblasts, using an episomal vector, and these cells were obtained from Professor Yamanaka et al. in Kyoto University (Okita, et al, Nat Methods. 8: 409-412, 2011). The human iPS cells 836B1 are cells obtained by introducing Oct3/4, Sox2, Klf4, L-MYC, LIN28, GLIS1 and p53shRNA into human fibroblasts, using an episomal vector, and these cells were obtained from Professor Yamanaka et al. in Kyoto University. The ES cells and the iPS cells were cultured on SNL cells (Takahashi K, et al, Cell. 131: 861-872, 2007).
On the day before induction of differentiation, in order to separate the ES cells or the iPS cells, which had been cultured in a culture medium to which 10 μM Y-27632 (WAKO) had been added, from the SNL feeder cells, the SNL cells were removed with CTK and the remaining cells were then dissociated using Accumax (ICT). The cells were transferred on a 96-well plate (Lipidure-coat 96-well plate (NOF Corporation)) in an amount of 9×10^3 cells per well. Thereafter, the cells were subjected to a suspension culture in DMEM/F12 (WAKO) comprising 50 μM Y-27632 (WAKO), 10 μM SB43152 (Sigma), 10 ng/ml bFGF (Invitrogen), various types of Wnt inhibitors (DKK1 (R & D, 500 ng/ml), C59 (Cellagen Technology, 2-10 nM), XAV (Stemgent, 500 nM-2 μM) or IWP4 (Stemgent, 500 nM-2.5 μM)), LDN193189 (Stemgent), KSR (Invitrogen), 0.1 mM MEM non-essential amino acid (Invitrogen), 0.1 mM 2-mercaptoethanol (WAKO), and 2 mM L-Gln (Invitrogen) (initiation of differentiation induction, day 0). […] Three days later, the medium was exchanged with DMEM/F12 (WAKO) comprising various types of Wnt inhibitors (DKK1, C59, XAV or IWP4 (Stemgent)), LDN193189 (Stemgent), KSR (Invitrogen), 0.1 mM MEM non-essential amino acid (Invitrogen), 0.1 mM 2-mercaptoethanol (WAKO), and 2 mM L-Gln (Invitrogen) (day 6). Thereafter, the medium was exchanged with a fresh one of the same type every 3 days, and the culture was carried out for 18 days after the initiation of differentiation induction (day 18).
The obtained cell mass was transferred on a dish (24-well plate (BD)) coated with 50 μg/ml ornithine (Sigma), 5 μg/ml laminin (Sigma) and 5 μg/ml fibronectin (BD Bioscience Pharmingen), and the culture was continued in Neurobasal (Invitrogen), to which B27 (Invitrogen), 2 mM L-Gln, and 10 units/ml penicillin and streptomycin (Invitrogen) had been added. The culture was carried out for, at maximum, 46 days after the initiation of differentiation induction. It is to be noted that the medium was exchanged with a fresh one every 2 or 3 days.
In the above-described induction method, 500 ng/ml DKK1, 2 nM C59, 500 nM XAV or 500 nM IWP4 was added as a Wnt inhibitor to the cells, and the obtained mixture was then cultured for 18 days. Thereafter, the expression levels of Six3 (forebrain marker), Sox1 (neuroectodermal marker), Foxg1 (cerebral cortex-forming factor), Lhx2 (cerebral cortex-forming factor), Emx2 (forebrain back portion marker), CoupTF1 (forebrain back portion marker) and Pax6 (forebrain front portion marker) genes in the cultured cells were measured by a qPCR method (FIG. 2).
The concentration of C59 used as a Wnt inhibitor in the above-described induction method was examined. Specifically, without using C59, or using 2.5 nM, 10 nM and 1 μM C59, the cells were cultured for 18 days. […] The obtained spheres were subjected to immunostaining of using an antibody against Pax6. […] Furthermore, the expression levels of the Foxg1, Lhx2, Emx2 and CoupTF1 genes in the obtained spheres were measured according to a qPCR method (FIG. 4B). As a result, the expression level of CoupTF1 was low and the expression levels of Lhx2 and Foxg1 were high in the case of using 10 nM C59. […]

[2] = test system: ES cells or the iPS cells; assay: Cell death / cytotoxicity in spheres on the 18th day of the culture; details: 2 μM LDN193189, 18th day of the culture
Experimental: On the day before induction of differentiation, in order to separate the ES cells or the iPS cells, which had been cultured in a culture medium to which 10 μM Y-27632 (WAKO) had been added, from the SNL feeder cells, the SNL cells were removed with CTK and the remaining cells were then dissociated using Accumax (ICT). The cells were transferred on a 96-well plate (Lipidure-coat 96-well plate (NOF Corporation)) in an amount of 9×10^3 cells per well. Thereafter, the cells were subjected to a suspension culture in DMEM/F12 (WAKO) comprising 50 μM Y-27632 (WAKO), 10 μM SB43152 (Sigma), 10 ng/ml bFGF (Invitrogen), various types of Wnt inhibitors (DKK1 (R & D, 500 ng/ml), C59 (Cellagen Technology, 2-10 nM), XAV (Stemgent, 500 nM-2 μM) or IWP4 (Stemgent, 500 nM-2.5 μM)), LDN193189 (Stemgent), KSR (Invitrogen), 0.1 mM MEM non-essential amino acid (Invitrogen), 0.1 mM 2-mercaptoethanol (WAKO), and 2 mM L-Gln (Invitrogen) (initiation of differentiation induction, day 0). […] Three days later, the medium was exchanged with DMEM/F12 (WAKO) comprising various types of Wnt inhibitors (DKK1, C59, XAV or IWP4 (Stemgent)), LDN193189 (Stemgent), KSR (Invitrogen), 0.1 mM MEM non-essential amino acid (Invitrogen), 0.1 mM 2-mercaptoethanol (WAKO), and 2 mM L-Gln (Invitrogen) (day 6). […]

[3] = test system: ES cells or the iPS cells; assay: Immunostaining for CoupTF1 and Ctip2 after 46 days of cerebral cortex differentiation
From the text: as §1
On the day before induction of differentiation, in order to separate the ES cells or the iPS cells, which had been cultured in a culture medium to which 10 μM Y-27632 (WAKO) had been added, from the SNL feeder cells, the SNL cells were removed with CTK and the remaining cells were then dissociated using Accumax (ICT). The cells were transferred on a 96-well plate (Lipidure-coat 96-well plate (NOF Corporation)) in an amount of 9×10^3 cells per well. Thereafter, the cells were subjected to a suspension culture in DMEM/F12 (WAKO) comprising 50 μM Y-27632 (WAKO), 10 μM SB43152 (Sigma), 10 ng/ml bFGF (Invitrogen), various types of Wnt inhibitors (DKK1 (R & D, 500 ng/ml), C59 (Cellagen Technology, 2-10 nM), XAV (Stemgent, 500 nM-2 μM) or IWP4 (Stemgent, 500 nM-2.5 μM)), LDN193189 (Stemgent), KSR (Invitrogen), 0.1 mM MEM non-essential amino acid (Invitrogen), 0.1 mM 2-mercaptoethanol (WAKO), and 2 mM L-Gln (Invitrogen) (initiation of differentiation induction, day 0). […]
The concentration of LDN193189 used in the above-described induction method was examined. […] Furthermore, the expression levels of the CoupTF1 and Sfrp1 genes were measured according to a qPCR method (FIG. 5C). […]

[4] = 0.1 μM, 0.5 μM and 2 μM LDN193189, 46 days, qPCR, in a concentration-dependent manner
[5] = 500 ng/ml DKK1 as Wnt inhibitor, cultured for 18 days, qPCR

O=C1[C@H](Cc2ccc(O)cc2)N2C(=O)CCN(C(=O)NCc3ccccc3)[C@H]2CN1Cc1cccc2ccccc12 [ICG-001]
efficiency of inducing CoupTF1-negative Ctip2-positive cells (iPS cells (836B1)): significantly low

c1ccc2c(-c3cnn4cc(-c5ccc(N6CCNCC6)cc5)cnc34)ccnc2c1 [LDN193189, 4-(6-(4-(piperazin-1-yl)phenyl)pyrazolo [1,5-a]pyrimidin-3-yl)quinoline]
expression level of CoupTF1 [1, 4]: low
expression level of Sfrp1 [1, 4]: high
cell death in spheres [2]: cell death was often found
cytotoxicity [2]: strongly appeared
CoupTF1-negative Ctip2-positive cells ([3]; 0.1 μM, 0.5 μM and 2 μM LDN193189, 46 days): obtained in a concentration-dependent manner

Cc1cc(-c2ncc(CC(=O)Nc3ccc(-c4cnccn4)cn3)cc2C)ccn1 [LGK-974]
efficiency of inducing CoupTF1-negative Ctip2-positive cells (iPS cells (836B1)): not found a large difference

SB431542
CoupTF1-negative Ctip2-positive cells ([3]; 10 μM SB43152 as TGFβ inhibitor, 46 days): obtained

B1: DKK1: DKK1 protein, Wnt inhibitor (human NCBI Accession No. NM_012242), R & D (protein, UniProt O94907 32-266, looked up)
Dickkopf-related protein 1: TLNSVLNSNAIKNLPPPLGGAAGHPGSAVSAAPGILYPGGNKYQTIDNYQPYPCAEDEECGTDEYCASPTRGGDAGVQICLACRKRRKRCMRHAMCCPGNYCKNGICVSSDQNHFRGEIEETITESFGNDHSTLDGYSRRTTLSSKMYHTKGQEGSVCLRSSDCASGLCCARHFWSKICKPVLKEGQVCTKHRRKGSHGLEIFQRCYCGEGLSCRIQKDHHQASNSSRLHTCQRH
cells in the back portion of the forebrain induced ([1]; 500 ng/ml DKK1 as Wnt inhibitor, cultured for 18 days): a large number
expression level of CoupTF1 (forebrain back portion marker) [1, 5]: high
expression level of Emx2 (forebrain back portion marker) [1, 5]: high
